# Laboratory results taken from PubChem BioAssay AID1963867 (Molecular Pharmacology Branch, DTP, NCI, 2024).
# Tested on: KRAS-mutant PDC tumor spheroid with HUVEC/MSC, viability
# Experiment: Anticancer human tumor 327498-153-R-J2-PDC patient-derived uterine carcinosarcoma cell line growth inhibition [KRAS2]
# Settings: for IC50: curve of first compound; for viability, T/C: stronger effect = lower value
# Method in brief: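 KRAS-mutant tumor cells were grown as spheroids with HUVEC endothelial cells and human MSCs as stroma. Targeted agents were tested alone and with KRAS pathway inhibitors. Doses started at or near clinical Cmax, or 10 microM, descending half-log.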
# [1] = second compound 0.0316 µM, first compound 0.00316 µM
# [2] = second compound 0.0316 µM, first compound 0.01 µM
# [3] = second compound 0.0316 µM, first compound 0.0316 µM
# [4] = second compound 0.0316 µM, first compound 0.1 µM
# [5] = second compound 0.1 µM, first compound 0.00316 µM
# [6] = second compound 0.1 µM, first compound 0.01 µM
# [7] = second compound 0.1 µM, first compound 0.0316 µM
# [8] = second compound 0.1 µM, first compound 0.1 µM
# [9] = second compound 0.316 µM, first compound 0.00316 µM
# [10] = second compound 0.316 µM, first compound 0.01 µM
# [11] = second compound 0.316 µM, first compound 0.0316 µM
# [12] = second compound 0.316 µM, first compound 0.1 µM
# [13] = second compound 1 µM, first compound 0.00316 µM
# [14] = second compound 1 µM, first compound 0.01 µM
# [15] = second compound 1 µM, first compound 0.0316 µM
# [16] = second compound 1 µM, first compound 0.1 µM
# [17] = second compound 3.16 µM, first compound 0.00316 µM
# [18] = second compound 3.16 µM, first compound 0.01 µM
# [19] = second compound 3.16 µM, first compound 0.0316 µM
# [20] = second compound 3.16 µM, first compound 0.1 µM
# [21] = second compound 0.1 µM, first compound 0.316 µM
# [22] = second compound 0.1 µM, first compound 1 µM
# [23] = second compound 0.316 µM, first compound 0.316 µM
# [24] = second compound 0.316 µM, first compound 1 µM
# [25] = second compound 1 µM, first compound 0.316 µM
# [26] = second compound 1 µM, first compound 1 µM
# [27] = second compound 3.16 µM, first compound 0.316 µM
# [28] = second compound 3.16 µM, first compound 1 µM
# 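Further: spheroids exposed to agents for seven days before reading.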
# 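Wherever viability, T/C is given: 100% = DMSO vehicle wells so lower means fewer viable cells.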
smiles,measurement,setting,value
CN(C)C/C=C/C(=O)Nc1cc2c(Nc3ccc(F)c(Cl)c3)ncnc2cc1O[C@H]1CCOC1 + C=CC(=O)N1CCN(c2nc(OCC3CCCN3C)nc3c2CCN(c2cccc4cccc(C)c24)C3)CC1CC#N,IC50,second compound 0.0316 µM,> 100 nM
same,IC50,second compound 0.1 µM,22 nM
same,IC50,second compound 0.316 µM,2.29 nM
same,IC50,second compound 1 µM,2.8 nM
same,IC50,second compound 3.16 µM,< 0.316 nM
same,"viability, T/C","second compound 0.0316 µM, first compound 0.000316 µM",88.8%
same,"viability, T/C","second compound 0.0316 µM, first compound 0.001 µM",80.8%
same,"viability, T/C",[1],74.4%
same,"viability, T/C",[2],64.2%
same,"viability, T/C",[3],66.5%
same,"viability, T/C",[4],61.4%
same,"viability, T/C","second compound 0.1 µM, first compound 0.000316 µM",62.9%
same,"viability, T/C","second compound 0.1 µM, first compound 0.001 µM",64.1%
same,"viability, T/C",[5],50.8%
same,"viability, T/C",[6],53.7%
same,"viability, T/C",[7],48.4%
same,"viability, T/C",[8],47.5%
same,"viability, T/C","second compound 0.316 µM, first compound 0.000316 µM",66.8%
same,"viability, T/C","second compound 0.316 µM, first compound 0.001 µM",56.2%
same,"viability, T/C",[9],45.2%
same,"viability, T/C",[10],44.8%
same,"viability, T/C",[11],50.2%
same,"viability, T/C",[12],45.1%
same,"viability, T/C","second compound 1 µM, first compound 0.000316 µM",56.3%
same,"viability, T/C","second compound 1 µM, first compound 0.001 µM",54.9%
same,"viability, T/C",[13],47%
same,"viability, T/C",[14],49.1%
same,"viability, T/C",[15],43.6%
same,"viability, T/C",[16],44%
same,"viability, T/C","second compound 3.16 µM, first compound 0.000316 µM",1.53%
same,"viability, T/C","second compound 3.16 µM, first compound 0.001 µM",0.35%
same,"viability, T/C",[17],0.21%
same,"viability, T/C",[18],1.34%
same,"viability, T/C",[19],0.49%
same,"viability, T/C",[20],0.3%
CCN1CCN(Cc2ccc(Nc3ncc(F)c(-c4cc(F)c5nc(C)n(C(C)C)c5c4)n3)nc2)CC1 + C=CC(=O)N1CCN(c2nc(OCC3CCCN3C)nc3c2CCN(c2cccc4cccc(C)c24)C3)CC1CC#N,IC50,second compound 0.0316 µM,< 3.16 nM
same,IC50,second compound 0.1 µM,< 3.16 nM
same,IC50,second compound 0.316 µM,< 3.16 nM
same,IC50,second compound 1 µM,< 3.16 nM
same,IC50,second compound 3.16 µM,< 3.16 nM
same,"viability, T/C",[1],55.9%
same,"viability, T/C",[2],46.6%
same,"viability, T/C",[3],33.4%
same,"viability, T/C",[4],35.2%
same,"viability, T/C","second compound 0.0316 µM, first compound 0.316 µM",34.5%
same,"viability, T/C","second compound 0.0316 µM, first compound 1 µM",40.4%
same,"viability, T/C",[5],49.1%
same,"viability, T/C",[6],35.4%
same,"viability, T/C",[7],28.2%
same,"viability, T/C",[8],34.2%
same,"viability, T/C",[21],33.7%
same,"viability, T/C",[22],36.4%
same,"viability, T/C",[9],40.5%
same,"viability, T/C",[10],33.1%
same,"viability, T/C",[11],30.1%
same,"viability, T/C",[12],24%
same,"viability, T/C",[23],33.3%
same,"viability, T/C",[24],37.9%
same,"viability, T/C",[13],31.1%
same,"viability, T/C",[14],23.1%
same,"viability, T/C",[15],21.1%
same,"viability, T/C",[16],19.3%
same,"viability, T/C",[25],23.5%
same,"viability, T/C",[26],13.5%
same,"viability, T/C",[17],1.79%
same,"viability, T/C",[18],0.22%
same,"viability, T/C",[19],0.46%
same,"viability, T/C",[20],0.84%
same,"viability, T/C",[27],0.58%
same,"viability, T/C",[28],0.24%
CC1(C)CCC(CN2CCN(c3ccc(C(=O)NS(=O)(=O)c4ccc(NCC5CCOCC5)c([N+](=O)[O-])c4)c(Oc4cnc5[nH]ccc5c4)c3)CC2)=C(c2ccc(Cl)cc2)C1 + CNCc1ccccc1-c1csc(C(C)Nc2nc(C)nc3cc(OC)c(OC)cc23)c1,IC50,second compound 0.1 µM,3280 nM
same,IC50,second compound 0.316 µM,2710 nM
same,IC50,second compound 1 µM,1930 nM
same,IC50,second compound 3.16 µM,< 31.6 nM
same,IC50,second compound 10 µM,< 31.6 nM
same,"viability, T/C",[7],90.5%
same,"viability, T/C",[8],78.1%
same,"viability, T/C",[21],79.4%
same,"viability, T/C",[22],77.5%
same,"viability, T/C","second compound 0.1 µM, first compound 3.16 µM",50.8%
same,"viability, T/C","second compound 0.1 µM, first compound 10 µM",13.7%
same,"viability, T/C",[11],84.3%
same,"viability, T/C",[12],79.5%
same,"viability, T/C",[23],73.2%
same,"viability, T/C",[24],76.4%
same,"viability, T/C","second compound 0.316 µM, first compound 3.16 µM",46%
same,"viability, T/C","second compound 0.316 µM, first compound 10 µM",9.74%
same,"viability, T/C",[15],72.5%
same,"viability, T/C",[16],72.8%
same,"viability, T/C",[25],71.3%
same,"viability, T/C",[26],72.3%
same,"viability, T/C","second compound 1 µM, first compound 3.16 µM",33.2%
same,"viability, T/C","second compound 1 µM, first compound 10 µM",1.07%
same,"viability, T/C",[19],1.08%
same,"viability, T/C",[20],0.13%
same,"viability, T/C",[27],0.22%
same,"viability, T/C",[28],0.13%
same,"viability, T/C","second compound 3.16 µM, first compound 3.16 µM",0.09%
same,"viability, T/C","second compound 3.16 µM, first compound 10 µM",0.25%
same,"viability, T/C","second compound 10 µM, first compound 0.0316 µM",0.41%
same,"viability, T/C","second compound 10 µM, first compound 0.1 µM",0.15%
same,"viability, T/C","second compound 10 µM, first compound 0.316 µM",0.26%
same,"viability, T/C","second compound 10 µM, first compound 1 µM",0.14%
same,"viability, T/C","second compound 10 µM, first compound 3.16 µM",0.16%
same,"viability, T/C","second compound 10 µM, first compound 10 µM",0.23%
